Reference: patent US9839614B2, “Nanoparticle and polymer formulations for thyroid hormone analogs, antagonists, and formulations and uses thereof” (NANOPHARMACEUTICALS LLC, priority 2009, dated 2017)

How the values were obtained:
[1] = test system: MDA-MB-231 cells gene expression; assay: RNA microarray of MDA-MB-231 cells (Example 16); type: cell-based, human
Experimental: MDA-MB-231 cells were purchased from ATCC (Manassas, Va.). Cells were maintained until use in DMEM that contained 10% FBS. The incubator conditions were 5% CO2/95% 02 and 37° C. The action of unmodified Tetrac and nanoparticulate on MDA-MB-231 cells was determined in a perfusion bellows cell culture system we have recently described for quantitating pharmaceutical agent pharmacodynamics in vitro. (See Lin et al., J Steroid Biochem Mol Biol 113: 182-188 (2009)). In brief, the cell culture system is a disposable bioreactor capable of high density cell culture for studies of anti-cancer drugs. Bellows-induced alternate flow of culture medium and air through porous matrices where cells are grown provides a relatively low shear, high aeration, foam-free culture environment. Medium level is raised and lowered to submerge and expose matrices to create a dynamic interface between air and media on the cell surface. Anchorage-dependent cells are grown on plastic flakes in the system. The flakes facilitate harvesting of whole cells for analysis. In the present studies, 5×10^7 cells were seeded in each perfusion flask and incubated at 37 C overnight. Flakes thereafter were sampled at regular intervals (FIG. 44), subjected to trypsinization and the harvested cells counted. When Tetrac or nanoparticulate Tetrac were initially added to the system, flasks contained 20-50×10^6 cells. Cell cultures were re-fed with 1% FBS-containing medium. Studies were carried out in duplicate flasks and replicated once. • Cell culture for harvesting of RNA. MDA-MB-231 cells were maintained in DMEM that was supplemented with 10% FBS in a 5% CO2/95% 02 air incubator at 37° C. For two days prior to exposure to Tetrac and nanoparticulate Tetrac, cells were maintained in 0.25% FBS that was stripped of estrogen and thyroid hormone. (See Lin et al., Biochemistry 42: 7571-7579 (2003)). • RNA microarray and analysis. Microarray analysis experiments were conducted as described previously. (See Glinsky et al., J Clin Invest 115: 1503-1521 (2005); Glinsky et al., J Clin Invest 113: 913-923 (2004); Glinsky et al., Clin Cancer Res 10: 2272-2283 (2004); and Glinsky et al., Mol Carcinog 37: 209-221 (2003)). […] Sample purity and integrity were verified with an Agilent BioAnalyzer (Santa Clara, Calif.). Expression analysis of 54,675 transcripts for each sample was by Affymetrix HG-U133A Plus 2.0 arrays. MAS5.0 software was used for data retrieval and analysis and concordant changes of gene expression in response to unmodified Tetrac and nanoparticulate Tetrac were defined by two-tailed t test at a threshold p value <0.01. Results • Effects of Tetrac and nanoparticulate Tetrac on MDA-MB-231 cell proliferation. […] Unmodified Tetrac at 10^−6M, introduced at day 0, inhibited cell proliferation by more than 30% by day 9. […] Actions shown here of nanoparticulate Tetrac on these pairs of genes are antithetic to tumor cell survival. […] A third pathway affected by the agents was that of the catenins. (See Takemaru et al., Nature 422: 905-909 (2003)). CBY1 is a potent inhibitor of β-catenin and the Wnt/β-catenin system, which are major survival pathways in cancer cells. CBY1 expression was induced by Tetrac and Tetrac NP.

[2] = test system: MDA-MB-231 cells gene expression; assay: RNA microarray of MDA-MB-231 cells (Example 17); type: cell-based, human; conditions: 24 h
Experimental: Expression of ˜54,000 transcripts was analyzed in control and drug-treated cultures, using Affymetrix Human Genome U133 plus 2.0 microarrays. Subsequent analysis was focused on genes affected by treatment at p<0.01. There was 93% concordance between Tetrac and Tetrac NP in terms of genes affected; notable disparities included downregulation of epidermal growth factor receptor (EGFR) by Tetrac NP and no affect of unmodified Tetrac on this gene.

[3] = test system: GL261 cells; assay: Cell multiplicity (CM) factor after one hour Tetrac exposure; type: cell-based, murine; conditions: after one hour exposure to Tetrac
Experimental: Cell multiplicity (CM) was determined from Giemsa stained slides by counting the number of cells per microcolony under 20× magnification. At least 400 microcolonies were counted.
The length of time that Tetrac biologically affected GL261 cells was also determined. To do this, the multiplicity relationship defined above was utilized. Tetrac was added to cells one hour prior to the determination of the multiplicity. After the exposure of exponentially growing GL261 cells to Tetrac, the Tetrac containing medium was removed from GL261 cells, which contained an unknown residual and fresh medium (without Tetrac) was added. As a function of time (i.e., 0, 1, 2, 3, 4, 6, 8, and 10 hours, and 1-6 days), the cells, containing an unknown residual amount of remaining Tetrac, were then processed for determination of the multiplicity index (i.e. the number of cells per microcolony).

[4] = test system: doxorubicin-resistant MCF7/R tumors; assay: Doxorubicin-resistant tumors in nude mice; type: in vivo
Experimental: Mice were injected with doxorubicin-resistant MCF7/R cells (10^6) and after 10 days, they were assigned into groups of seven mice each and challenged with doxorubicin (2 mg/kg) or Tetrac (30 mg/kg) either alone or in combination. Tumor volume was measured every 3 days for up to three weeks.

`O=C(O)Cc1cc(I)c(Oc2cc(I)c(O)c(I)c2)c(I)c1` [Tetrac, tetraiodothyroacetic acid] was tested, and the BCL2L14 expression ([1]; MDA-MB-231) was “not a significant stimulatory action”, the CASP2 expression ([1]; MDA-MB-231) was “not a significant stimulatory action” and the CBY1 expression ([1]; MDA-MB-231) was “significantly increased”. The MCL1 expression ([1]; MDA-MB-231) was “did not significantly affect”, the THBS1 expression ([1]; MDA-MB-231) was “upregulation” and the XIAP expression ([1]; MDA-MB-231) was “also acted on XIAP”. The EGFR expression ([1]; MDA-MB-231 (FIG. 50)) was “ineffective”, the “Change: CDKN2C” value ([2]; 10^−7M (Tetrac equivalent), hormone-stripped serum) was “↑” and the “Change: BCL2L14” value ([2]; 10^−7M) was “↑”. For the same molecule, the “Change: CASP2” value ([2]; 10^−7M) was “↑”, the “Change: CBY1” value ([2]; 10^−7M) was “↑” and the “Change: CTNNA1” value ([2]; 10^−7M) was “↓”. The “Change: CTNNA2” value ([2]; 10^−7M) was “↓”, the “Change: CTSL1” value ([2]; 10^−7M) was “↓” and the “Change: CXCL10” value ([2]; 10^−7M) was “↑”. For the same molecule, the “Change: Cyclins” value ([2]; 10^−7M) was “↓”, the “Change: EDN1” value ([2]; 10^−7M) was “↑” and the “Change: Interleukins” value ([2]; 10^−7M) was “↓”. For the same molecule, the “Change: MCL1” value ([2]; 10^−7M) was “↓”, the “Change: NR1D1” value ([2]; 10^−7M) was “↓” and the “Change: THBS1” value ([2]; 10^−7M) was “↑”. For the same molecule, the “Change: XIAP” value ([2]; 10^−7M) was “↓”, the “epidermal growth factor receptor (EGFR) expression” value ([2]; 10^−7M) was “no affect” and the “time at which 50% decrease in the CM factor was recorded” value [3] was 60 h. For the same molecule, the “growth of drug resistant tumors” value ([4]; Tetrac 30 mg/kg) was “effective in suppressing the growth of drug resistant tumors”, the toxic effect ([4]; Tetrac 30 mg/kg) was “without any noticeable toxic effect” and the doxorubicin-sensitivity in vivo ([4]; Tetrac with doxorubicin 2 mg/kg) was “not restored”.
